# Assays:
# [1] = system: murine pancreatic tumor (Pan02); assay: Pan02 pancreatic tumor growth in C57BL/6 mice; type: in vivo
# Description: To obtain the data presented in FIG. 1, a murine pancreatic tumor (Pan02) was engrafted in C57BL/6 mice. When tumors reached an average size of 50-100 mm^3, tumor bearing mice were assigned to one of four experimental groups and treatment was initiated. Groups of mice received: (1) saline (control), (2) anti-PD-1 antibody (BIO X CELL®, 200 μg/dose every 3 days), (3) the β-adrenergic signaling antagonist propranolol (10 mg/kg daily by intraperitoneal injection) or (4) combination therapy. Tumor growth was monitored and graphed as relative tumor volume compared to each tumor's starting volume. […] The data accordingly indicate that the combination therapy can be effective against pancreatic tumors that are resistant to treatment with the checkpoint inhibitor alone.
# 4T1 breast cancer model = 4T1 breast cancer model tumor growth in BALB/c mice; type: in vivo; settings: 4T1 in BALB/c mice; propranolol started three days before anti-PD-1
structure (smiles),measurement,setting,value
CC(C)NCC(O)COc1cccc2ccccc12 (stereo not drawn) [propranolol],tumor growth (relative tumor volume compared to starting volume),"[1]; Pan02 in C57BL/6 mice, anti-PD-1 200 μg/dose every 3 days, propranolol 10 mg/kg daily i.p., Students t-test",neither anti-PD-1 nor propranolol alone caused a statistically significant decrease in tumor growth
same,efficacy of anti-PD-1 checkpoint inhibition,"[1]; propranolol added to anti-PD-1, Pan02 tumors in C57BL/6 mice, p<0.05",significantly improved the efficacy of anti-PD-1 checkpoint inhibition
same,tumor growth (absolute and relative tumor volume),4T1 breast cancer model,neither propranolol nor anti-PD-1 mAb alone has any impact on tumor growth
